Reference: patent publication US4194006A, “Therapeutic application of acetyl-d,l-carnitine and other acyl derivatives of d,l-carnitine” (priority 1977, dated 1980)
Like-named read-outs stand apart in the source and are kept apart here.

Key:
in vivo = conditions: mouse, in vivo, iv
From the text: The tolerance of acetyl-d,l-carnitine and of the other aforementioned acyl derivatives of the formula (I), as well as their salts were investigated by comparing the LD50 obtained by administering the compounds intravenously in mice with the LD50 obtained under the same experimental conditions by intravenous injection of d,l-carnitine.

isolated rabbit hearts [1] = experiment: cardiokinetic effect on isolated heart (Langendorff): contractile force after anoxia, positive inotropic effect; conditions: 10 minutes from interruption of anoxic period
Outline: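 Rabbit hearts were perfused Langendorff-style with oxygenated Ringer at 38.2 °C. Anoxia was applied until contractile force dropped by 80%, then the hearts were reoxygenated with or without compound. Contractile force was expressed as a percentage 10 min after the anoxic period ended.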

isolated rat atrium = experiment: antiarrhythmic effect, isolated rat atrium method of M. Libonati and G. Segre; conditions: Rattus norvegicus; for inhibition at 0.1 µg/mL / activation at 0.1 µg/mL: 1·10^-4 g/lt; for inhibition at 0.1 µg/mL / inhibition at 0.01 µg/mL / inhibition at 0.001 µg/mL: decrease; for activation at 0.1 µg/mL / activation at 0.01 µg/mL / activation at 0.001 µg/mL: increase; for inhibition at 0.01 µg/mL / activation at 0.01 µg/mL: 1·10^-5 g/lt; for inhibition at 0.001 µg/mL / activation at 0.001 µg/mL: 1·10^-6 g/lt
female rats = experiment: antifatigue effect: rota-rod; format: in vivo, rat; conditions: Rattus norvegicus, ip, 0.25 h, read-out: percentage of animals staying on the rota-rod more than 180 seconds; for responders at 300 mg/kg: 300 mg/kg i.p.; for responders at 400 mg/kg: 400 mg/kg i.p.; for responders at 600 mg/kg: 600 mg/kg i.p.
Outline: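 Female rats dosed intraperitoneally in saline, with controls given saline alone. Every 15 min after treatment animals were placed on a 6 cm rod rotating at 16 r.p.m. Value is the percentage of animals staying on the rod for more than 180 s, per session.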

isolated rabbit hearts [2] = experiment: coronary vasodilator effect: coronary flow, isolated heart (Langendorff)
Outline: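 Langendorff-perfused isolated rabbit hearts in oxygenated Ringer at 38.2° C; anoxia imposed until contractile force fell by 80%, then reoxygenated with or without test compound. Coronary flow, isometric contraction and ECG recorded by polygraph.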

[3] = read-out: Mean percent variation versus controls: excitability (-%)
[4] = read-out: Mean percent variation versus controls: frequency max (-%)
[5] = read-out: Mean percent variation versus controls: refractory period (+%)
[6] = read-out: Mean percent variation versus controls: rheobase (+%)
[7] = session 6 (every 15 minutes), * p < 0.05

## CCCCCCCCCCCCCCCCCC(=O)OC(CC(=O)[O-])C[N+](C)(C)C (racemic) [stearoyl-d,l-carnitine]
In vivo
  LD50: ~745 mg/kg
Isolated rabbit hearts [1]; 1·10^-5 g/lt
  Contractile force, Mean ± S.E.: 32.8 ± 3.01%
Isolated rabbit hearts [1]; 1·10^-6 g/lt
  Contractile force, Mean ± S.E.: 27.1 ± 3.18%
Isolated rabbit hearts [1]; 5·10^-6 g/lt
  Contractile force, Mean ± S.E.: 27.5 ± 4.09%
Isolated rat atrium; [3]
  inhibition at 0.1 µg/mL: 12.3%
  inhibition at 0.01 µg/mL: 0%
  inhibition at 0.001 µg/mL: 0%
Isolated rat atrium; [4]
  inhibition at 0.1 µg/mL: 3.5%
  inhibition at 0.01 µg/mL: 1.92%
  inhibition at 0.001 µg/mL: 0%
Isolated rat atrium; [5]
  activation at 0.1 µg/mL: 24.6%
  activation at 0.01 µg/mL: 16.2%
  activation at 0.001 µg/mL: 15.6%
Isolated rat atrium; [6]
  activation at 0.1 µg/mL: 2.08%
  activation at 0.01 µg/mL: 3.84%
  activation at 0.001 µg/mL: 1.85%
Female rats; session 1 (every 15 minutes)
  responders at 300 mg/kg: 0%
  responders at 400 mg/kg: 0%
  responders at 600 mg/kg: 0%
Female rats; session 2 (every 15 minutes)
  responders at 300 mg/kg: 0%
  responders at 400 mg/kg: 0%
  responders at 600 mg/kg: 10%
Female rats; session 3 (every 15 minutes)
  responders at 300 mg/kg: 0%
  responders at 400 mg/kg: 0%
  responders at 600 mg/kg: 10%
Female rats; session 4 (every 15 minutes)
  responders at 300 mg/kg: 10%
  responders at 400 mg/kg: 10%
  responders at 600 mg/kg: 20%
Female rats; session 5 (every 15 minutes)
  responders at 300 mg/kg: 10%
  responders at 400 mg/kg: 20%
  responders at 600 mg/kg: 20%
Female rats; session 6 (every 15 minutes)
  responders at 300 mg/kg: 10%
Female rats; [7]
  responders at 400 mg/kg: 20%
  responders at 600 mg/kg: 20%
Isolated rabbit hearts [2]; 1·10^-5 g/lt
  Coronary flow, Mean ± S.E.: 81.05 ± 6.27%
Isolated rabbit hearts [2]; 1·10^-6 g/lt
  Coronary flow, Mean ± S.E.: 80.21 ± 8.78%
Isolated rabbit hearts [2]; 5·10^-6 g/lt
  Coronary flow, Mean ± S.E.: 77.30 ± 11.8%
